Results as given in ChEMBL document CHEMBL5385896, “Discovery of PIM-1 kinase inhibitors based on the 2,5-disubstituted 1,3,4-oxadiazole scaffold against prostate cancer: Design, synthesis, in vitro and in vivo cytotoxicity investigation” (Eur J Med Chem, 2023).
Blank lines part the entries; values can stand above or below the compound they belong to. The source made the active and inactive calls. The rule behind the calls is not given here.

Tests used:
PC-3 [1] = test: cells; assay type: functional, cell-based; conditions: Homo sapiens, PC-3, 48 h
Description: Cytotoxicity against human PC-3 cells assessed as inhibition of cell growth incubated for 48 hrs by MTT assay

HepG2 = test: Cytotoxicity against human HepG2 cells assessed as inhibition of cell growth incubated for 48 hrs by MTT assay; assay type: functional, cell-based; conditions: HepG2, 48 h
MCF7 = test: cells; assay type: functional, cell-based; conditions: Homo sapiens, MCF7, 48 h
Description: Cytotoxicity against human MCF7 cells assessed as inhibition of cell growth incubated for 48 hrs by MTT assay

[2] = target: Serine/threonine-protein kinase pim-1 (Homo sapiens, UniProt P11309); test: Inhibition of PIM-1 (unknown origin)
Serine/threonine-protein kinase pim-1, sequence (P11309 whole entry): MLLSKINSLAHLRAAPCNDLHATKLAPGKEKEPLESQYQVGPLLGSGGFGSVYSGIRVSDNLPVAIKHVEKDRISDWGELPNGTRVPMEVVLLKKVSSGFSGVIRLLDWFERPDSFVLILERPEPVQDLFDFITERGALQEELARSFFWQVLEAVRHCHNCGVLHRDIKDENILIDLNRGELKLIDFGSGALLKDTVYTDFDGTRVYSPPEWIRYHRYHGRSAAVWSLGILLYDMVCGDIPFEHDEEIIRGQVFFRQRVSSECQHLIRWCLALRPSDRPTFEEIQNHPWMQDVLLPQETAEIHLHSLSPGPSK

PC-3 [3] = test: Induction of apoptosis in human PC-3 cells assessed as nuclear condensation at 0.017 uM incubated for 48 hrs by DAPI-staining based confocal microscopic analysis; assay type: functional, cell-based
PC-3 [4] = test: Induction of apoptosis in human PC-3 cells assessed as fold increase in apoptosis at 0.017 uM incubated for 48 hrs by DAPI-staining based confocal microscopic analysis; assay type: functional
PC-3 [5] = test: Induction of apoptosis in human PC-3 cells assessed as early apoptotic cells at 0.017 uM incubated for 48 hrs by Annexin V-FITC and PI staining based flow cytometric analysis (reference value: 0.27 %); assay type: functional
PC-3 [6] = test: Induction of apoptosis in human PC-3 cells assessed as late apoptotic cells at 0.017 uM incubated for 48 hrs by Annexin V-FITC and PI staining based flow cytometric analysis (reference value: 0.18 %); assay type: functional
PC-3 [7] = test: Induction of apoptosis in human PC-3 cells assessed as necrotic cells at 0.017 uM incubated for 48 hrs by Annexin V-FITC and PI staining based flow cytometric analysis (reference value: 0.77 %); assay type: functional
PC-3 [8] = test: Induction of apoptosis in human PC-3 cells at 0.017 uM incubated for 48 hrs by Annexin V-FITC and PI staining based flow cytometric analysis relative to control; assay type: functional
PC-3 [9] = test: Induction of cell cycle arrest in human PC-3 cells assessed as accumulation of cells at PreG1-phase at 0.017 uM incubated for 48 hrs by Annexin V-FITC and PI staining based flow cytometric analysis (reference value: 1.37 %); assay type: functional
PC-3 [10] = test: Induction of cell cycle arrest in human PC-3 cells assessed as accumulation of cells at G1-phase at 0.017 uM incubated for 48 hrs by Annexin V-FITC and PI staining based flow cytometric analysis (reference value: 44.73 %); assay type: functional
PC-3 [11] = test: Induction of cell cycle arrest in human PC-3 cells assessed as accumulation of cells at S-phase at 0.017 uM incubated for 48 hrs by Annexin V-FITC and PI staining based flow cytometric analysis (reference value: 42.08 %); assay type: functional
PC-3 [12] = test: Induction of cell cycle arrest in human PC-3 cells assessed as accumulation of cells at G2/M-phase at 0.017 uM incubated for 48 hrs by Annexin V-FITC and PI staining based flow cytometric analysis (reference value: 13.19 %); assay type: functional
PC-3 [13] = test: Induction of apoptosis in human PC-3 cells assessed as fold change in p53 gene expression at 0.017 uM incubated for 48 hrs by RT-PCR analysis; assay type: functional
PC-3 [14] = test: Induction of apoptosis in human PC-3 cells assessed as fold change in PUMA gene expression at 0.017 uM incubated for 48 hrs by RT-PCR analysis; assay type: functional
PC-3 [15] = test: Induction of apoptosis in human PC-3 cells assessed as fold change in caspase-3 gene expression at 0.017 uM incubated for 48 hrs by RT-PCR analysis; assay type: functional
PC-3 [16] = test: Induction of apoptosis in human PC-3 cells assessed as fold change in caspase-8 gene expression at 0.017 uM incubated for 48 hrs by RT-PCR analysis; assay type: functional
PC-3 [17] = test: Induction of apoptosis in human PC-3 cells assessed as fold change in caspase-9 gene expression at 0.017 uM incubated for 48 hrs by RT-PCR analysis; assay type: functional
PC-3 [18] = test: Induction of apoptosis in human PC-3 cells assessed as fold decrease in BCL-2 gene expression at 0.017 uM incubated for 48 hrs by RT-PCR analysis; assay type: functional
PC-3 [19] = test: Induction of apoptosis in human PC-3 cells assessed as fold decrease in JAK2 gene expression at 0.017 uM incubated for 48 hrs by RT-PCR analysis; assay type: functional
PC-3 [20] = test: Induction of apoptosis in human PC-3 cells assessed as fold decrease in STAT3 gene expression at 0.017 uM incubated for 48 hrs by RT-PCR analysis; assay type: functional
[21] = Antioxidant activity assessed as DPPH radical scavenging activity incubated for 30 mins; assay type: functional
[22] = Antioxidant activity assessed as DPPH radical scavenging activity at 100 uM incubated for 30 mins relative to control; assay type: functional
PC-3 [23] = test: Antitumor activity against human PC-3 cells xenografted in mouse assessed as decrease in body weight loss at 4.2 mg/kg,ip administration; assay type: functional, organism-based
PC-3 [24] = test: Antitumor activity against human PC-3 cells xenografted in mouse assessed as decrease in tumor mass at 4.2 mg/kg,ip administration; assay type: functional
PC-3 [25] = test: Antitumor activity against human PC-3 cells xenografted in mouse assessed as decrease in tumor volume at 4.2 mg/kg,ip administration; assay type: functional
PC-3 [26] = test: Antitumor activity against human PC-3 cells xenografted in mouse assessed as tumor growth inhibition at 4.2 mg/kg,ip administration; assay type: functional; conditions: read-out: TGI
PC-3 [27] = test: Antitumor activity against human PC-3 cells xenografted in mouse assessed as increase in hemoglobin level at 5.2 mg/kg,ip administration (reference value: 2.94 +/- 0.54 g/dl); assay type: functional
PC-3 [28] = test: Antitumor activity against human PC-3 cells xenografted in mouse assessed as increase in RBC count at 5.2 mg/kg,ip administration (reference value: 2.34 +/- 0.57 10^6/microL); assay type: functional
PC-3 [29] = test: Antitumor activity against human PC-3 cells xenografted in mouse assessed as decrease in WBC count at 5.2 mg/kg,ip administration (reference value: 4.98 +/- 0.87 10^3/microL); assay type: functional
PC-3 [30] = test: Antitumor activity against human PC-3 cells xenografted in mouse assessed as decrease in ALT level at 5.2 mg/kg,ip administration (reference value: 81.25 +/- 1.69 I/U); assay type: functional
PC-3 [31] = test: Antitumor activity against human PC-3 cells xenografted in mouse assessed as decrease in AST level at 5.2 mg/kg,ip administration (reference value: 85.38 +/- 1.59 I/U); assay type: functional
PC-3 [32] = test: Antitumor activity against human PC-3 cells xenografted in mouse assessed as increase in total protein level at 5.2 mg/kg,ip administration (reference value: 4.01 +/- 0.27 g/dl); assay type: functional
PC-3 [33] = test: Antitumor activity against human PC-3 cells xenografted in mouse assessed as decrease in liver damage at 5.2 mg/kg,ip administration by; assay type: functional, organism-based
PC-3 [34] = test: Antitumor activity against human PC-3 cells xenografted in mouse assessed as hepatocyte hydropic degeneration at 5.2 mg/kg,ip administration by; assay type: functional, organism-based
PC-3 [35] = test: Antitumor activity against human PC-3 cells xenografted in mouse assessed as hepatocyte balloon degeneration at 5.2 mg/kg,ip administration by; assay type: functional, organism-based
[36] = Toxicity in mouse xenografted with human PC-3 cells assessed as lethal dose at ip administration; assay type: organism-based; conditions: in vivo
in vitro = conditions: human, RWPE2 cells
Description: Cytotoxicity against human RWPE2 cells assessed as inhibition of cell growth incubated for 48 hrs by MTT assay

PC-3 [37] = test: Antitumor activity against human PC-3 cells xenografted in mouse assessed as decrease in tumor mass at 5.2 mg/kg,ip administration; assay type: functional; design: scale not given: the % may be the effect or the level left
PC-3 [38] = test: Antitumor activity against human PC-3 cells xenografted in mouse assessed as decrease in tumor volume at 5.2 mg/kg,ip administration; assay type: functional

- IC50 (PC-3 [1]): 3.21 µM
- IC50 (MCF7): 0.75 µM
SMILES: COc1cccc(-c2nnc(-c3ccnc(-c4ccccc4)c3)o2)c1
- IC50 (HepG2): ≥ 50 µM

- IC50 (PC-3 [1]): 0.82 µM
- IC50 (MCF7): 13.7 µM
- IC50 at 48 h (in vitro): 45.7 µM
SMILES: Fc1ccc(-c2nnc(-c3ccnc(-c4ccc(C(F)(F)F)cc4)c3)o2)cc1
- IC50 (HepG2): 7.21 µM
- Activity [21]: Dose-Dependent Effect

- IC50 (PC-3 [1]): 12.7 µM
- IC50 (MCF7): 8.36 µM
- IC50 at 48 h (in vitro): 42.6 µM
SMILES: c1ccc(-c2cc(-c3nnc(-c4ccccc4)o3)ccn2)cc1
- IC50 (HepG2): 13.9 µM

- IC50 (PC-3 [1]): 2.01 µM
- IC50 (MCF7): 20.5 µM
SMILES: COc1ccc(-c2nnc(-c3ccnc(-c4ccccc4)c3)o2)c(F)c1
- IC50 (HepG2): 13.7 µM

- IC50 (PC-3 [1]): 6.21 µM
- IC50 (MCF7): 3.8 µM
SMILES: Fc1cccc(-c2nnc(-c3ccnc(-c4ccccc4)c3)o2)c1
- IC50 (HepG2): 4.31 µM

- IC50 (PC-3 [1]): 0.56 µM
- IC50 (MCF7): 9.7 µM
- IC50 at 48 h (in vitro): ≥ 50 µM
SMILES: COc1ccc(-c2nnc(-c3ccnc(-c4ccccc4)c3)o2)cc1
- IC50 (HepG2): 7.06 µM
- Activity [21]: Dose-Dependent Effect

- IC50 (PC-3 [1]): ≥ 50 µM
- IC50 (MCF7): 9.66 µM
SMILES: FC(F)(F)c1ccc(-c2cc(-c3nnc(-c4ccccc4)o3)ccn2)cc1
- IC50 (HepG2): 4.03 µM

- IC50 (PC-3 [1]): 2.31 µM
- IC50 (MCF7): 18.9 µM
SMILES: Fc1ccc(-c2nnc(-c3ccnc(-c4ccccc4)c3)o2)cc1
- IC50 (HepG2): ≥ 50 µM

More lines, now with the values behind:

SMILES: Clc1cccc(-c2nnc(-c3ccnc(-c4ccccc4)c3)o2)c1
- IC50 (PC-3 [1]): 0.016 µM
- IC50 (HepG2): 0.13 µM
- IC50 (MCF7): 5.37 µM
- IC50 [2]: 17 µM
- Activity (PC-3 [3]): Active
- fold change (FC) (PC-3 [4]): 37.2
- Activity (PC-3 [5]): 2.09%
- Activity (PC-3 [6]): 17.35%
- Activity (PC-3 [7]): 11.9%
- Activity (PC-3 [8]): 19.44%
- Activity (PC-3 [9]): 26.44%
- Activity (PC-3 [10]): 47.36%
- Activity (PC-3 [11]): 45.18%
- Activity (PC-3 [12]): 7.46%
- fold change (FC) (PC-3 [13]): 6.58
- fold change (FC) (PC-3 [14]): 3.85
- fold change (FC) (PC-3 [15]): 6.98
- fold change (FC) (PC-3 [16]): 3.25
- fold change (FC) (PC-3 [17]): 8.67
- fold change (FC) (PC-3 [18]): 0.45
- fold change (FC) (PC-3 [19]): 0.52
- fold change (FC) (PC-3 [20]): 0.48
- Activity [21]: Dose-Dependent Effect
- Activity [22]: 94%
- Activity (PC-3 [23]): Active
- Activity (PC-3 [24]): 89.4 mg
- Activity (PC-3 [25]): 34.1 mm3
- inhibition in vivo at 4.2 mg/kg (PC-3 [26]): 64.2%
- Activity (PC-3 [27]): 6.89 g/dL
- Activity (PC-3 [28]): 4.02 10^6 /uL
- Activity (PC-3 [29]): 2.87 10^3 /uL
- Activity (PC-3 [30]): 49.8 U/L
- Activity (PC-3 [31]): 48.9 U/L
- Activity (PC-3 [32]): 5.74 g/dL
- Activity (PC-3 [33]): Active
- Activity (PC-3 [34]): Active
- Activity (PC-3 [35]): Active
- LD50 [36]: 4.2 mg/kg
- IC50 at 48 h (in vitro): 35.4 µM

SMILES: COc1cccc(-c2nnc(-c3ccnc(-c4ccc(C(F)(F)F)cc4)c3)o2)c1
- IC50 (PC-3 [1]): 13.2 µM
- IC50 (HepG2): ≥ 50 µM
- IC50 (MCF7): 12.4 µM

SMILES: FC(F)(F)c1ccc(-c2cc(-c3nnc(-c4cccc(Cl)c4)o3)ccn2)cc1
- IC50 (PC-3 [1]): ≥ 50 µM
- IC50 (HepG2): 3.24 µM
- IC50 (MCF7): 10 µM

SMILES: COc1ccc(-c2nnc(-c3ccnc(-c4ccc(C(F)(F)F)cc4)c3)o2)cc1
- IC50 (PC-3 [1]): 9.31 µM
- IC50 (HepG2): 3.25 µM
- IC50 (MCF7): 25.7 µM

SMILES: Cc1c(C)c2c(c(C)c1O)CCC(C)(C(=O)O)O2 (configuration not stated)
- Activity [22]: 96%

SMILES: CN[C@@H]1C[C@H]2O[C@@](C)([C@@H]1OC)n1c3ccccc3c3c4c(c5c6ccccc6n2c5c31)C(=O)NC4 [STAUROSPORINE]
- IC50 (HepG2): 5.07 µM
- Activity (PC-3 [37]): 20%
- Activity (PC-3 [38]): 52.9 mm3
- Activity (PC-3 [27]): 6.52 g/dL
- Activity (PC-3 [28]): 4.95 10^6 /uL
- Activity (PC-3 [29]): 2.81 10^3 /uL
- Activity (PC-3 [30]): 50.4 U/L
- Activity (PC-3 [31]): 47.38 U/L
- Activity (PC-3 [32]): 5.39 g/dL

SMILES: Fc1cccc(-c2nnc(-c3ccnc(-c4ccc(C(F)(F)F)cc4)c3)o2)c1
- IC50 (PC-3 [1]): 0.76 µM
- IC50 (HepG2): 6.02 µM
- IC50 (MCF7): 70.1 µM
- Activity [21]: Dose-Dependent Effect
- IC50 at 48 h (in vitro): 31.9 µM
